Non-standard residues stand in square brackets, D forms with d. Residues, ends and D or L forms follow the SMILES beside them. No end group written: not given here. *: point of attachment. Phe(4-N(CH2CH2Cl)2) = N[C@@H](Cc1ccc(N(CCCl)CCCl)cc1)C(=O)O; Chlorambucil = O=C(CCCc1ccc(N(CCCl)CCCl)cc1)*
Assays:
[1] = test system: Human melanoma cells (WW-94); assay: Tissue culture cell counting (cell coulter) after 72 hours, melanoma cells; format: cell-based; conditions: melanoma (cancer) cells, FIG. 4A, read-out: IC50 (concentration of the drug measured at 50% of the cell death)
Experimental: (§1) Human melanoma cells (WW-94) were grown in 50% DMEM/50% F-12 medium supplemented with 10% fetal calf serum and antibiotics.
(§2) To determine the biological activity of the drugs, HUVEC (normal cells) or melanoma (cancer) cells were seeded in 24-well dish at a concentration of 10,000-20,000 cells/well, and increasing concentrations of the prodrug 3-Peptide I-Chlorambucil (P-CAC) were added to the wells. As controls, either Cholorambucil or the peptide carrier was added under the same experimental conditions. After 72 hours the cells were washed with phosphate buffer saline (PBS), suspended with 0.5% EDTA/PBS, and counted using cell coulter (Electronics ZM). Cell viability was verified by trypan-blue staining and hemocytometer analysis. IC50 indicates the concentration of the drug measured at 50% of the cell death.

[2] = test system: Human umbilical vein-derived endothelial cells (HUVEC); assay: Tissue culture cell counting (cell coulter) after 72 hours, HUVEC (normal cells); format: cell-based
Experimental: (§3) Human umbilical vein-derived endothelial cells (HUVEC) were prepared from umbilical veins and cultured as described previously. The HUVE cells were grown in M199 medium supplemented with 20% fetal calf serum, vitamins, 1 ng/ml hbFGF, and antibiotics.
as §2

[3] = test system: HUVEC; assay: MTT assay for estimation of toxicity, HUVEC (normal cells); format: cell-based, human
Experimental: as §3
(§4) HUVEC or melanoma cells were seeded in 96-well ELISA dish at a concentration of 10,000-20,000 cells/well, and various concentrations of the prodrug 1 were added to the wells as described in Example 17. As a control, Melphalan was added under the same experimental conditions. After 72 hours the medium was aspirated, and DMEM containing 5% FCS and 0.5 mg/ml MTT (an indicator of cell viability) was added. The cells were incubated for 2-4 hours at 37° C. and 5% CO2. At the end of the incubation the cells were washed with phosphate buffer saline (PBS), and dissolved with DMSO. The results were analysed using Techan ELISA reader equipped with a 570 nm filter.

[4] = test system: melanoma cells; assay: MTT assay for estimation of toxicity, melanoma cells; format: cell-based; conditions: Homo sapiens, 72 hours, FIG. 5B
Experimental: as §1, §4

[5] = test system: MMPs secreted by cancer cells (conditioned medium of human melanoma cells HMCM or human breast cancer cells BCCM); assay: In-vitro release of Chlorambucil from the peptide carrier by cancer cell conditioned medium; format: biochemical; conditions: PBS, 2 hours at 37° C., FIG. 6
Experimental: To find out whether proteases are secreted to the conditioned medium of cancer cells, breast cancer cells or melanoma cells were grown to sub-confluence in a 10 cm dish. The cells were washed with PBS, and further incubated with serum free medium. HUVE cells were grown to confluence at 10 cm dish. The cells were washed with M-199 medium, and conditioned with M-199 with 1% heat inactivated serum. The conditioned medium was collected after 24 hours.
(§5) In-vitro release of Chlorambucil from the peptide carrier was carried out in a liquid phase as described in Example 19. Peptide I-Chlorambucil was dissolved in PBS, and incubated for 2 hours at 37° C. in the absence or presence of purified MMPs, or in the presence of conditioned medium of either human melanoma cells (HMCM) or human breast cancer cells (BCCM).
(§6) At the end of the incubation the reaction mixture was incubated with heparin-sepharose (30 minutes at 0° C.). The supernatant was collected, and the release of free chlorambucil was monitored by spectrophotometer at a wavelengh of 305 nm.

[6] = test system: purified MMPs; assay: In-vitro release of Chlorambucil from the peptide carrier by purified MMPs; format: biochemical
Experimental: as §5, §6

`O=C(O)CCCc1ccc(N(CCCl)CCCl)cc1` [Chlorambucil, reference compound] was tested, and the IC50 [1] was 2000 nM and the IC50 ([2]; Homo sapiens, HUVEC, HUVE (normal) cells, 72 hours, cell counting, FIG. 4B, read-out: IC50 (concentration of the drug measured at 50% of the cell death)) was 2000 nM.

In the case of `N[C@@H](Cc1ccc(N(CCCl)CCCl)cc1)C(=O)O` [Melphalan, reference compound], the IC50 ([3]; Homo sapiens, HUVEC, HUVE cells, 72 hours, FIG. 5A) is reported as 100 nM and the IC50 [4] is reported as 70 nM.

In the case of `CC[C@H](C)[C@H](NC(=O)CNC(=O)[C@H](CC(C)C)NC(=O)[C@H](CC(C)C)NC(=O)CNC(=O)[C@H](Cc1ccc(O)cc1)NC(=O)[C@@H](N)Cc1ccc(N(CCCl)CCCl)cc1)C(=O)N[C@@H](C)C(=O)NCC(=O)N1CCC[C@H]1C(=O)N1CCC[C@H]1C(=O)NCC(=O)N1CCC[C@H]1C(=O)N1CCC[C@H]1C(=O)N[C@@H](CC(C)C)C(=O)N[C@@H](Cc1ccc(O)cc1)C(=O)N[C@@H](CCCCN)C(=O)N[C@@H](CCCCN)C(=O)N[C@H](C(=O)N[C@H](C(=O)N[C@@H](CCCCN)C(=O)N[C@@H](CCCCN)C(=O)N[C@@H](CC(C)C)C(=O)N[C@@H](CC(C)C)C(=O)N[C@@H](CCC(N)=O)C(=O)N[C@@H](CO)C(=O)O)[C@@H](C)CC)[C@@H](C)CC` [Prodrug 1, Peptide I-Melphalan] (H-[Phe(4-N(CH2CH2Cl)2)]YGLLGIAGPPGPPLYKKIIKKLLQS-OH; N-terminus and C-terminus assumed), the “times less toxic to normal cells” value ([3]; HUVE cells versus melanoma cells) is reported as 7 times.

`CC[C@H](C)[C@H](NC(=O)CNC(=O)[C@H](CC(C)C)NC(=O)[C@H](CC(C)C)NC(=O)CNC(=O)[C@H](Cc1ccc(O)cc1)NC(=O)CCCc1ccc(N(CCCl)CCCl)cc1)C(=O)N[C@@H](C)C(=O)NCC(=O)N1CCC[C@H]1C(=O)N1CCC[C@H]1C(=O)NCC(=O)N1CCC[C@H]1C(=O)N1CCC[C@H]1C(=O)N[C@@H](CC(C)C)C(=O)N[C@@H](Cc1ccc(O)cc1)C(=O)N[C@@H](CCCCN)C(=O)N[C@@H](CCCCN)C(=O)N[C@H](C(=O)N[C@H](C(=O)N[C@@H](CCCCN)C(=O)N[C@@H](CCCCN)C(=O)N[C@@H](CC(C)C)C(=O)N[C@@H](CC(C)C)C(=O)N[C@@H](CCC(N)=O)C(=O)N[C@@H](CO)C(=O)O)[C@@H](C)CC)[C@@H](C)CC` [Prodrug 3, Peptide I-Chlorambucil] (Chlorambucil-YGLLGIAGPPGPPLYKKIIKKLLQS-OH) was tested, and the “release of free chlorambucil from the peptide carrier” value [5] was “can be released”, the “effect of heparin on release of the chemotherapeutic agent from the peptide carrier” value ([6]; presence of 10 μg/ml heparin, 2 hours incubation) was “inhibited the release” and the “release of free chlorambucil from the peptide carrier” value ([6]; purified MMPs, PBS, 2 hours at 37° C., read at 305 nm, FIG. 6) was “can be released”. The “times less toxic to normal cells” value ([2]; HUVE cells versus melanoma cells, cell counting) was 30 times.

“YGLLGIAGPPGPPLYKKIIKKLLQS [peptide carrier]” was tested, and the “toxicity to HUVEC” value ([2]; HUVEC, 72 hours, FIG. 4) was “not toxic”.

From patent US8314060B2, “Peptide conjugated anti-cancer prodrugs” (BioSight Ltd., priority 2000, dated 2012)
